The target of one experiment is T1, HA-RXFP3 (Homo sapiens, UniProt Q9NSD7).
T1 construct: expressed in transfected cells; host or cells: HEK-293T
T1 sequence (Q9NSD7 2-469 limits assumed): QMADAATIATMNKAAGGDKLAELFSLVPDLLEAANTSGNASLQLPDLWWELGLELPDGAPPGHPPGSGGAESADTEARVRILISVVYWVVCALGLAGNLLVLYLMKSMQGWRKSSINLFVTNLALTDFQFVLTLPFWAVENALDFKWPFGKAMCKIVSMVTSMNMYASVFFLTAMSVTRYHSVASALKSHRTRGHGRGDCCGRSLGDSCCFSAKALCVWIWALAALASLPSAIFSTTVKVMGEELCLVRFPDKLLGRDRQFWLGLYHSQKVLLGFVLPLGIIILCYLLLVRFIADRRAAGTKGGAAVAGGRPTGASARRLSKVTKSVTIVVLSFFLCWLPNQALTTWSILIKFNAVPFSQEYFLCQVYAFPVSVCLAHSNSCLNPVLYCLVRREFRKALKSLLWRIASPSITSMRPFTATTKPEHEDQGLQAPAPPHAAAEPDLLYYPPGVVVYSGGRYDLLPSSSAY
Briefly: Competition binding with Eu-H3/I5, HA-RXFP3. To be noted: HA-RXFP3 vs wild-type RXFP3, competition binding.

The next experiment concerns the target T2, HA-RXFP3 E55A/D58A (Homo sapiens, UniProt Q9NSD7, D58A/E55A).
T2 construct: expressed in transfected cells; host or cells: HEK-293T
T2 sequence (Q9NSD7 2-469 E55A/D58A limits assumed): T1 sequence (Q9NSD7 2-469 limits assumed) with E54A, D57A
Briefly: Competition binding with Eu-H3/I5, HA-RXFP3 E55A/D58A. The method, then: (§1) PCR reactions and cloning were undertaken as previously described ([Scott et al., 2006], [2012]).
(§2) The same protocol was used to prepare DNA templates of all Glu/Asp to Ala mutants, entailing a single codon change except for D47A/E51A, E55A/D58A, and E141A/D145A which required a double codon change both to Ala. The forward and reverse primers for all mutants are listed in Table 1 and mutagenesis reactions on pcDNA3.1zeo (+)-HA-RXFP3 were performed as previously described ([Scott et al., 2006]; [Yan et al., 2008]). […]
(§3) HEK-293T cells were transfected in 96 well optiplates (Perkin Elmer) with plasmids encoding the constructs of interest and Eu-H3/I5 binding assays conducted as described previously ([Luo et al., 2010]; [Haugaard-Kedstrom et al., 2011]). […] Binding data are expressed as mean ± standard error of mean (SEM) of % specific binding of triplicate measurements pooled from at least three independent experiments. Data were analyzed using Graphpad PRISM (Graphpad Inc.) and a non-linear regression one-site binding model was used to plot curves and calculate pIC50 values. […] The HA epitope was detected using a purified mouse monoclonal anti-HA antibody [HA.11(16B12), Covance] and a Alexafluor488-labeled goat anti mouse IgG (Invitrogen) in cell surface expression assays that were performed in 24 well plates as previously described ([Yan et al., 2008]). […]

For a further experiment, the target named is T3, HA-RXFP3 E77A (Homo sapiens, UniProt Q9NSD7, E77A).
T3 construct: expressed in transfected cells; host or cells: HEK-293T
T3 sequence (Q9NSD7 2-469 E77A limits assumed): T1 sequence (Q9NSD7 2-469 limits assumed) with E76A
Briefly: Competition binding with Eu-H3/I5, HA-RXFP3 E77A. The method, then: as §1, §2, §3

Another experiment has as its system RXFP4. The following applies: ref Liu et al., 2003a; cited from earlier work. An excerpt: Relaxin-3 is a member of the relaxin peptide family. Peptides from this family activate relaxin family peptide (RXFP) receptors, which are Type I or Class A G protein-coupled receptors (GPCRs). […] The rela ... || Based on the hypothesis that coevolution of relaxin-3 and RXFP3 occurred in vertebrates and that residues important for relaxin-3 binding and activation should therefore be conserved we performed multiple sequence alignments of all vertebrate RXFP3 sequences. […] Figure 1A highlights sequence alignments of representative mammalian species (human, chimpanzee, rat, mouse, platypus) and representative lower vertebrate species (Frog and Zebrafish) from this analysis compa ... || Based on the hypothesis that coevolution of relaxin-3 and RXFP3 occurred in vertebrates, and in the knowledge that the key relaxin-3 B-chain residues are conserved across all vertebrate species ([Wilkinson et al., 2005b]), we performed multiple sequence alignments of all vertebrate RXFP3 sequences to identify highly conserved residues in the ELs and NT domain that may be involved in relaxin-3 binding. […] We have focused on glutamic (E) and aspartic acid (D) residues ...

The values below come from paper PMC3579193, “Elucidation of relaxin-3 binding interactions in the extracellular loops of RXFP3” (Frontiers in Endocrinology, 2013).

Positions count from the first letter of the chain named. Entries after “also recorded” stand apart in the source; their conditions may differ.

By IC50 is commonly meant the point on the concentration scale where inhibition reaches its midpoint. A lower IC50 goes with greater potency.

As to `CC[C@H](C)[C@@H]1NC(=O)[C@H](Cc2ccccc2)NC(=O)[C@H](CCC(=O)O)NC(=O)[C@H](CCCNC(=N)N)NC(=O)CNC(=O)[C@@H](NC(=O)[C@H](CC(C)C)NC(=O)[C@H](CCCNC(=N)N)NC(=O)[C@@H](NC(=O)CNC(=O)[C@H](Cc2ccc(O)cc2)NC(=O)[C@@H]2CCCN2C(=O)[C@H](C)NC(=O)[C@H](C)NC(=O)[C@@H](N)CCCNC(=N)N)C(C)C)CSSC[C@@H]2NC(=O)[C@@H](NC(=O)[C@H](CO)NC(=O)[C@H](CO)NC(=O)[C@H](CO)NC(=O)[C@H](CC(C)C)NC(=O)CNC(=O)[C@H](C)NC(=O)[C@H](CC(C)C)NC(=O)[C@@H](NC(=O)[C@@H](N)CC(=O)O)C(C)C)CSSC[C@H](NC(=O)CNC(=O)[C@H](Cc3c[nH]c4ccccc34)NC(=O)[C@H](CCCCN)NC2=O)C(=O)N[C@@H](CO)C(=O)N[C@@H](CCCCN)C(=O)N[C@@H](CO)C(=O)N[C@@H](CCC(=O)O)C(=O)N[C@@H]([C@@H](C)CC)C(=O)N[C@@H](CO)C(=O)N[C@@H](CO)C(=O)N[C@@H](CC(C)C)C(=O)N[C@H](C(=O)O)CSSC[C@@H](C(=O)NCC(=O)NCC(=O)N[C@@H](CO)C(=O)N[C@@H](CCCNC(=N)N)C(=O)N[C@@H](Cc2c[nH]c3ccccc23)C(=O)O)NC(=O)[C@H]([C@@H](C)O)NC(=O)[C@H](Cc2ccccc2)NC(=O)[C@H]([C@@H](C)CC)NC(=O)[C@H](C(C)C)NC(=O)[C@H](C)NC(=O)[C@H](CCCNC(=N)N)NC1=O` [H3 relaxin], on HA-RXFP3, the “binding affinity compared with wild-type RXFP3” value was “no difference in the binding affinity”. Also, the results for the IC50 on HA-RXFP3 E55A/D58A and on HA-RXFP3 E77A were 0.00933 µM and 0.0316 µM, respectively. The “affinity compared with HA-RXFP3” value at HA-RXFP3 E55A/D58A (competition binding, p > 0.05) is recorded as “not significantly different from HA-RXFP3”; at HA-RXFP3 E77A (competition binding, p > 0.05), “slightly lower H3 relaxin binding affinity but this was not significantly different from HA-RXFP3; also recorded: no significant difference in H3 relaxin affinity; also recorded: did not show a significant drop in binding”. Also, the “binding to and activation of RXFP4” value in the experiment with RXFP4 is “binds to and activates human RXFP4”.
